Laboratory results reported in ChEMBL document CHEMBL5584359, “Discovery and Preclinical Profile of ALG-055009, a Potent and Selective Thyroid Hormone Receptor Beta (THR-β) Agonist for the Treatment of MASH” (J Med Chem, 2024).
Each block holds one compound with its values, some of them ahead of it. Calls of active or inactive are those of the source. The rule behind the calls is not given here.

Assays:
[1] = Plasma protein binding in Sprague-Dawley rat at 2 uM incubated for 4 hrs by rapid equilibrium dialysis
[2] = Plasma protein binding in human at 2 uM incubated for 4 hrs by rapid equilibrium dialysis
in vitro [3] = details: human, cryopreserved hepatocytes
CYP2C9 = CYP2C9 (Homo sapiens, UniProt P11712); assay: Inhibition of CYP2C9 in human liver microsomes at 10 uM in presence of NADPH relative to control
in vitro [4] = details: rat, cryopreserved hepatocytes
CYP2C8 = molecular target: T1, CYP2C8 (Homo sapiens, UniProt P10632); assay: Inhibition of CYP2C8 in human liver microsomes at 10 uM in presence of NADPH relative to control
T1 sequence (P10632 whole entry): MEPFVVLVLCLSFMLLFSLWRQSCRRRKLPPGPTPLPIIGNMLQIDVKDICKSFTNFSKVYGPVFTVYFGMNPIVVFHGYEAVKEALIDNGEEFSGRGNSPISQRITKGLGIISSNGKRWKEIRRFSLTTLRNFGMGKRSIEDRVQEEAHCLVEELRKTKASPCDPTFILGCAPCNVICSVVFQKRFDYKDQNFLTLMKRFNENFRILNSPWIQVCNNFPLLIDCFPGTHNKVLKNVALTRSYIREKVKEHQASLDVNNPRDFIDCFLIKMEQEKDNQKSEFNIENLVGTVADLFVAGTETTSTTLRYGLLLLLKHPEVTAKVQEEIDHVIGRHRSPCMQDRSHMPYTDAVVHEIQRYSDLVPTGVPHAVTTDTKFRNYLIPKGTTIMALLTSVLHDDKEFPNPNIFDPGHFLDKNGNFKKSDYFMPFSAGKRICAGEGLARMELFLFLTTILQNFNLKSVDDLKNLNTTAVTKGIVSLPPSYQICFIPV

[5] = Apparent permeability of the compound from apical to basolateral side in human Caco-2 cells incubated for 1 hr
in vitro [6] = details: mouse, cryopreserved hepatocytes
[7] = molecular target: T2, UDP-glucuronosyltransferase 1A1 (Homo sapiens, UniProt P22309); assay: Inhibition of human recombinant UGT1A1 in presence of UDPGA cofactor
T2 sequence (P22309 whole entry): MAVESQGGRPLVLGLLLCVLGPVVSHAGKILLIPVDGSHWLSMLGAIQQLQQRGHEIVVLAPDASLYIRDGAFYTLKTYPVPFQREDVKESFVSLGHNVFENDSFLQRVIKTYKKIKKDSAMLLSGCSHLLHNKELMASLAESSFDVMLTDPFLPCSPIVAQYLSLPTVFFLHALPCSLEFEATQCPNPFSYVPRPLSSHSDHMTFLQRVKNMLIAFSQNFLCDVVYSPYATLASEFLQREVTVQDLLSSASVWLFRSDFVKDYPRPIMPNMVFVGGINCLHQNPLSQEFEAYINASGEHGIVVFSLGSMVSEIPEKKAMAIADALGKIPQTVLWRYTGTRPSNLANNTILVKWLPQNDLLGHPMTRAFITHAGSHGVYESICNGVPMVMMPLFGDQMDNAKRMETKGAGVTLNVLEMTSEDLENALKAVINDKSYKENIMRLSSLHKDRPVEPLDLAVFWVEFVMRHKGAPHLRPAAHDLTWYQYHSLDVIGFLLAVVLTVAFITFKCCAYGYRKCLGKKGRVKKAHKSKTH

[8] = molecular target: T3, Solute carrier organic anion transporter family member 1B1 (Homo sapiens, UniProt Q9Y6L6); assay: Inhibition of OATP1B1 (unknown origin) stably transfected in HEK293 cells at 1 to 100 uM; format: cell-based
T3 sequence (Q9Y6L6 whole entry): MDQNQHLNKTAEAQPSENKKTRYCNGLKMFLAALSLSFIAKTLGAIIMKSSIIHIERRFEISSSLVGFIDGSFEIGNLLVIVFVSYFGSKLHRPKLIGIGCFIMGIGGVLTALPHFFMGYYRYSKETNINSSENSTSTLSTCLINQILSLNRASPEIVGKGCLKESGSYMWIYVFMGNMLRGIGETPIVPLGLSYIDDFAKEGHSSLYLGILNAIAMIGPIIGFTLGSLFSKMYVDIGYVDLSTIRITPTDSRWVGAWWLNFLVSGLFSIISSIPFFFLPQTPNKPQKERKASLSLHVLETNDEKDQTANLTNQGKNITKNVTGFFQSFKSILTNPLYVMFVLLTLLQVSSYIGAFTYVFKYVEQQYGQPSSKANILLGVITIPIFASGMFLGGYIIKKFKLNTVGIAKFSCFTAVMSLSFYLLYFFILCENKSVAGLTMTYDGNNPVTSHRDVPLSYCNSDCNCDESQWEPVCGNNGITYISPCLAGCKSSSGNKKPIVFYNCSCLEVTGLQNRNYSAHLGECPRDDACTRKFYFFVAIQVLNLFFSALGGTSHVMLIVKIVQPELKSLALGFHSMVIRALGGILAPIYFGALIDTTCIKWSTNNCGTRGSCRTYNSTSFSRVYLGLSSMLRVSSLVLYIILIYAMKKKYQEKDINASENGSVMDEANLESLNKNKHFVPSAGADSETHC

[9] = molecular target: Sodium channel protein type 5 subunit alpha (Homo sapiens, UniProt Q14524); assay: Inhibition of Nav1.5 (unknown origin)
[10] = molecular target: Voltage-dependent L-type calcium channel subunit alpha-1C (Homo sapiens, UniProt Q13936); assay: Inhibition of CaV1.2 (unknown origin)
Rattus norvegicus [11] = assay: Antihypercholesterolemic activity against high fat diet-induced Sprague-Dawley rat model assessed as change in LDL-C level at 5 mg/kg, po measured at 1 to 24 hrs post dose; format: functional; details: time 1-24 hrs
[12] = AUC (0 to 24 hrs) in Sprague-Dawley rat at 1.5 mg/kg, po measured for 24 hrs by LC-MS/MS analysis; format: ADME, organism-based; details: in vivo
Rattus norvegicus [13] = assay: Antihypercholesterolemic activity against high fat diet-induced Sprague-Dawley rat model assessed as change in total cholesterol level at 5 mg/kg, po measured at 1 to 24 hrs post dose; format: functional; details: time 1-24 hrs
Rattus norvegicus [14] = assay: Antihypercholesterolemic activity against high fat diet-induced Sprague-Dawley rat model assessed as change in T3 level at 0.15 mg/kg, po measured at 1 to 24 hrs post dose; format: functional; details: time 1-24 hrs
Rattus norvegicus [15] = assay: Antihypercholesterolemic activity against high fat diet-induced Sprague-Dawley rat model assessed as change in T3 level at 1.5 mg/kg, po measured at 1 to 24 hrs post dose; format: functional; details: time 1-24 hrs
Rattus norvegicus [16] = species: Rattus norvegicus; assay: Antihypercholesterolemic activity against high fat diet-induced Sprague-Dawley rat model assessed as minimum effective dose measured after 24 hrs post dose; format: functional; details: read-out: MED
in vitro [17] = details: cynomolgus monkey, cryopreserved hepatocytes
[18] = Effect on CPT1A gene expression in human Huh-7 cells measured for 24 hrs; details: Huh-7, 24 h
Rattus norvegicus [19] = assay: Antihypercholesterolemic activity against high fat diet-induced Sprague-Dawley rat model assessed as change in total cholesterol level at 1.5 mg/kg, po measured at 1 to 24 hrs post dose; format: functional; details: time 1-24 hrs
[20] = Plasma protein binding in Beagle dog at 2 uM incubated for 4 hrs by rapid equilibrium dialysis
[21] = Ratio AUC in mouse liver to plasma; details: other tissue
Rattus norvegicus [22] = assay: Antihypercholesterolemic activity against high fat diet-induced Sprague-Dawley rat model assessed as change in T3 level at 5 mg/kg, po measured at 1 to 24 hrs post dose; format: functional; details: time 1-24 hrs
Rattus norvegicus [23] = assay: Antihypercholesterolemic activity against high fat diet-induced po dosed Sprague-Dawley rat model assessed as reduction in TC level measured after 24 hrs post dose; format: functional, organism-based; details: dose 0.15-5 mg/kg
Rattus norvegicus [24] = assay: Antihypercholesterolemic activity against high fat diet-induced Sprague-Dawley rat model assessed as change in T4 level at 1.5 mg/kg, po measured at 1 to 24 hrs post dose; format: functional; details: time 1-24 hrs
[25] = Ratio AUC in rat liver to plasma; details: other tissue
[26] = Drug concentration in Sprague-Dawley rat plasma at 5 mg/kg, po measured for 24 hrs by LC-MS/MS analysis; format: ADME, organism-based
[27] = Cmax in Sprague-Dawley rat at 5 mg/kg, po measured for 24 hrs by LC-MS/MS analysis; format: ADME, organism-based; details: in vivo
in vitro [28] = details: dog, cryopreserved hepatocytes
Rattus norvegicus [29] = assay: Antihypercholesterolemic activity against high fat diet-induced Sprague-Dawley rat model assessed as change in LDL-C level at 1.5 mg/kg, po measured at 1 to 24 hrs post dose; format: functional; details: time 1-24 hrs
Rattus norvegicus [30] = assay: Antihypercholesterolemic activity against high fat diet-induced Sprague-Dawley rat model assessed as change in LDL-C level at 0.15 mg/kg, po measured at 1 to 24 hrs post dose; format: functional; details: time 1-24 hrs
[31] = Drug concentration in Sprague-Dawley rat liver at 1.5 mg/kg, po measured for 24 hrs by LC-MS/MS analysis; format: ADME, organism-based; details: read-out: Ct
Rattus norvegicus [32] = assay: Antihypercholesterolemic activity against high fat diet-induced Sprague-Dawley rat model assessed as change in total cholesterol level at 0.15 mg/kg, po measured at 1 to 24 hrs post dose; format: functional; details: time 1-24 hrs
[33] = Cmax in Sprague-Dawley rat at 1.5 mg/kg, po measured for 24 hrs by LC-MS/MS analysis; format: ADME, organism-based; details: in vivo
[34] = Drug concentration in Sprague-Dawley rat plasma at 1.5 mg/kg, po measured for 24 hrs by LC-MS/MS analysis; format: ADME, organism-based
[35] = Drug concentration in Sprague-Dawley rat liver at 5 mg/kg, po measured for 24 hrs by LC-MS/MS analysis; format: ADME, organism-based; details: read-out: Ct
Rattus norvegicus [36] = assay: Antihypercholesterolemic activity against high fat diet-induced Sprague-Dawley rat model assessed as change in T4 level at 5 mg/kg, po measured at 1 to 24 hrs post dose; format: functional; details: time 1-24 hrs
Rattus norvegicus [37] = assay: Antihypercholesterolemic activity against high fat diet-induced Sprague-Dawley rat model assessed as change in T4 level at 0.15 mg/kg, po measured at 1 to 24 hrs post dose; format: functional; details: time 1-24 hrs
[38] = Plasma protein binding in cynomolgus monkey at 2 uM incubated for 4 hrs by rapid equilibrium dialysis

Sequence of CYP2C9 (P11712 whole entry): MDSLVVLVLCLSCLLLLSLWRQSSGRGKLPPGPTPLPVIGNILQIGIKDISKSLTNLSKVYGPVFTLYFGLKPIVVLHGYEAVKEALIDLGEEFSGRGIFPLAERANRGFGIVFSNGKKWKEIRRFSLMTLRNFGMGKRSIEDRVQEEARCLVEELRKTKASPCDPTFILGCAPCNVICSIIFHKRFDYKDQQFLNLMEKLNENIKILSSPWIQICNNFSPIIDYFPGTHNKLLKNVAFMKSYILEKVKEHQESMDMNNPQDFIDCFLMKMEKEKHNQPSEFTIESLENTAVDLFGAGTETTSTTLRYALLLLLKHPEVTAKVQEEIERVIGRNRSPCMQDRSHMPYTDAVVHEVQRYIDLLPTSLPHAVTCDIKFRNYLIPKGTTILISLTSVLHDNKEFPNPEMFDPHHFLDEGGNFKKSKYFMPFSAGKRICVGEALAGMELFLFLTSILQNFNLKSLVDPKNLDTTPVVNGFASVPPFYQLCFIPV
Sequence of Voltage-dependent L-type calcium channel subunit alpha-1C (Q13936 whole entry): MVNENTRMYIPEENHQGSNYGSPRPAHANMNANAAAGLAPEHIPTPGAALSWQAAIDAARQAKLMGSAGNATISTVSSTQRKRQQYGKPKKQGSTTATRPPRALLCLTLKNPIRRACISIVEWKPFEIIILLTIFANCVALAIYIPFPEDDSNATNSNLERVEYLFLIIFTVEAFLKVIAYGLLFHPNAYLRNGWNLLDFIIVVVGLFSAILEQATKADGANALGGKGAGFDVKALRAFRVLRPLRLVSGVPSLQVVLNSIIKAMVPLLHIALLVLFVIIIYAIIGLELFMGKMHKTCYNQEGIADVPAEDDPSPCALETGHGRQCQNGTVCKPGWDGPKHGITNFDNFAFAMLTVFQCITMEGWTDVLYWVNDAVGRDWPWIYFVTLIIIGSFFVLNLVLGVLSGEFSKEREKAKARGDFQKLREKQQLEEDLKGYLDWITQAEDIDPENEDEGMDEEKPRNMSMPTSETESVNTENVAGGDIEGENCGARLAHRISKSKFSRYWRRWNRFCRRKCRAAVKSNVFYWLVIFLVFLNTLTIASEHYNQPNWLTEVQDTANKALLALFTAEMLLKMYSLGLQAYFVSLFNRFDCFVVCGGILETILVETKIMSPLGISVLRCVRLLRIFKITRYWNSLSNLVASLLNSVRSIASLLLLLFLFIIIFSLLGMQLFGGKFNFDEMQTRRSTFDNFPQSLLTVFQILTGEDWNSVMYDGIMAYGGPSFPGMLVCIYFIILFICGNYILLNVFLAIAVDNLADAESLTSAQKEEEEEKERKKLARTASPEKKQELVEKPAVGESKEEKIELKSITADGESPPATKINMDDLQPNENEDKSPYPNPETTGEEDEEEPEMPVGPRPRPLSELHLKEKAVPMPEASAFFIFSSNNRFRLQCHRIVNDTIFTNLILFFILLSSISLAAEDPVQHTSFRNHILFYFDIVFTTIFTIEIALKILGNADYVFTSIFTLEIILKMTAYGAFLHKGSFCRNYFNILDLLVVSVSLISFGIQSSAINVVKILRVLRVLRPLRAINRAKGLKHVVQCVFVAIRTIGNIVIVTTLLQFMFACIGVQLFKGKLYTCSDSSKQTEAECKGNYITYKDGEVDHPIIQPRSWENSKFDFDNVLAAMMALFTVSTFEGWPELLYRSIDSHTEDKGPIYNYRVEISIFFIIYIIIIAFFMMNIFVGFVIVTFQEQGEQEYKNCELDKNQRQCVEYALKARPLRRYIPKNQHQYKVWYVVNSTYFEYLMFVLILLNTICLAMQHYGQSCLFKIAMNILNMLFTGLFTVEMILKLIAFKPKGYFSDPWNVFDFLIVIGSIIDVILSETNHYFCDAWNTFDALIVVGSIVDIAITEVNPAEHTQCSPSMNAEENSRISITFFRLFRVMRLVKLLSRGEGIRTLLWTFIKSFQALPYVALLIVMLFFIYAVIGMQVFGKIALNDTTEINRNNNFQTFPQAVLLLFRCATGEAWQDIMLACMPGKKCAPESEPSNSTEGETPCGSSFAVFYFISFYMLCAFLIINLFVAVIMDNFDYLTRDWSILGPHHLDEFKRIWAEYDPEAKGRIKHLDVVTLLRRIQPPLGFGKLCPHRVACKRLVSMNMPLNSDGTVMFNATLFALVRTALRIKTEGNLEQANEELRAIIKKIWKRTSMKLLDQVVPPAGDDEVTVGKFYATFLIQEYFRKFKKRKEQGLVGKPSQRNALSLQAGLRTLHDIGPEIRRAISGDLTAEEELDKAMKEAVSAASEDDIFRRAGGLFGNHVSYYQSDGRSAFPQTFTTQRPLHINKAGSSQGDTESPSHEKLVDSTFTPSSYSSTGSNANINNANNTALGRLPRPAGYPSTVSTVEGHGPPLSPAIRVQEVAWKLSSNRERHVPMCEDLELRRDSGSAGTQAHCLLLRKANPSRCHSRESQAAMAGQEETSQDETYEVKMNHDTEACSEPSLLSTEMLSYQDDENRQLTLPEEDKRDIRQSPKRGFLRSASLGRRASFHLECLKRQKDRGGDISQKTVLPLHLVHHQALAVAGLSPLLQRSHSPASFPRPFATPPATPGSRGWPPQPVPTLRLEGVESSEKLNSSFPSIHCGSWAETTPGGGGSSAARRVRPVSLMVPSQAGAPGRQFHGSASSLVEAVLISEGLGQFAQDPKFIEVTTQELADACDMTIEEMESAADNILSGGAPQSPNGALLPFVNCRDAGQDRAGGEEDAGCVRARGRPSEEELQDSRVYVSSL
Sequence of Sodium channel protein type 5 subunit alpha (Q14524 whole entry): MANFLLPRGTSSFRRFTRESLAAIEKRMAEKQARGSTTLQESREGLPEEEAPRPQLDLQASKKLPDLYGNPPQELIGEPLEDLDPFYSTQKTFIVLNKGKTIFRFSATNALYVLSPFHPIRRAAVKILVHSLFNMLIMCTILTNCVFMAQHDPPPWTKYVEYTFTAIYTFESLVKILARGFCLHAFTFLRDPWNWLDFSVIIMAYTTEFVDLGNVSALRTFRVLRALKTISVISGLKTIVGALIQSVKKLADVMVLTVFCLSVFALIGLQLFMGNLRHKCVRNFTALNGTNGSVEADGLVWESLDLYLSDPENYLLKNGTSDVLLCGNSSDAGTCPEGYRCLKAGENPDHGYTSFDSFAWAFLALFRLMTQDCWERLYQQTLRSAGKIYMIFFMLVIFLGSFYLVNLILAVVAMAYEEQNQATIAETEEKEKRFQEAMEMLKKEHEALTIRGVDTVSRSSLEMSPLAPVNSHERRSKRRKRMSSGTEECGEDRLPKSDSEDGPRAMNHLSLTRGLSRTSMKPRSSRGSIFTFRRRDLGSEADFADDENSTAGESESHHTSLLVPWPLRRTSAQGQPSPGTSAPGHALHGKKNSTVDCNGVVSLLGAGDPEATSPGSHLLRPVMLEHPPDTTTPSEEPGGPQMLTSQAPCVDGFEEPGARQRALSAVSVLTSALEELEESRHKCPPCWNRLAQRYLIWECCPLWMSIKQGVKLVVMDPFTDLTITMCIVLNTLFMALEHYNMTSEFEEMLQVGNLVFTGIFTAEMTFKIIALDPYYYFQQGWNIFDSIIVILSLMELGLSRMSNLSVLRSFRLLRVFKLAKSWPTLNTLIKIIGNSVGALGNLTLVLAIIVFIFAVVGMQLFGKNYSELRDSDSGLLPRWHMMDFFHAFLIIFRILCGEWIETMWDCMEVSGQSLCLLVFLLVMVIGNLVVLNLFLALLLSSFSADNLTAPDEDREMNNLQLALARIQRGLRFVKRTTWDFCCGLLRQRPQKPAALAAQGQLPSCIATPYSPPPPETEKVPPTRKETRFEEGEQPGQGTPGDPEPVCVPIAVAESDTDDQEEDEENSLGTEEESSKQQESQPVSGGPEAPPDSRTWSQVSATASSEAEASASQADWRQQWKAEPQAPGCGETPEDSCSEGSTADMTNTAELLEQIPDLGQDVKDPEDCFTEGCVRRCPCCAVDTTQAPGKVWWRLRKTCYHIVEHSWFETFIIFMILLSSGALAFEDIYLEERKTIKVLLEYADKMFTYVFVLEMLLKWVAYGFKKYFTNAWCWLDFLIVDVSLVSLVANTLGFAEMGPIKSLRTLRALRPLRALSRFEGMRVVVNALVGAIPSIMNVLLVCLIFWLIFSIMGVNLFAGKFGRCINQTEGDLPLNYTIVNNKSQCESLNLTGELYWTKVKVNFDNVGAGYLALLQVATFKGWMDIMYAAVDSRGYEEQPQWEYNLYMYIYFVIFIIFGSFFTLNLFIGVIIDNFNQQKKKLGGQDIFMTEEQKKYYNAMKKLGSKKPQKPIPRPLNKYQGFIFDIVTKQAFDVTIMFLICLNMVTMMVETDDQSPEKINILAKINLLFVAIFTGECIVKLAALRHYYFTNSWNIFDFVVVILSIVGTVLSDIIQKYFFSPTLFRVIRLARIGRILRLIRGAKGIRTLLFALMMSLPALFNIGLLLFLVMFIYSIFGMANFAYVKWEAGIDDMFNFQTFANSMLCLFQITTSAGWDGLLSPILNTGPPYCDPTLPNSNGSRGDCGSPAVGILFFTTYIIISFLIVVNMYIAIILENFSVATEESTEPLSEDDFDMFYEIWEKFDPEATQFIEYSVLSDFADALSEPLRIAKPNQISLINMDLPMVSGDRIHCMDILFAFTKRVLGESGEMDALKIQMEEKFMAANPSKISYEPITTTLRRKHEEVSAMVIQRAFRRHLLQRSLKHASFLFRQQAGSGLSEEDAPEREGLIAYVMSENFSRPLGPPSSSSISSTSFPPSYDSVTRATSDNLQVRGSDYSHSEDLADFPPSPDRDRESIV

fraction unbound at 4 h, 2 µM [1]: < 0.002 | fraction unbound at 4 h, 2 µM [2]: 0.01 | half-life at 3 h, 1 µM (in vitro [3]): 1.72 h | inhibition at 10 µM (CYP2C9): 61% | half-life at 3 h, 1 µM (in vitro [4]): 1.43 h | inhibition at 10 µM (CYP2C8): 87% | Papp A→B at 1 h ([5]; Caco-2): 0.3 ×10⁻⁶ cm/s | half-life at 3 h, 1 µM (in vitro [6]): 1.18 h
Compound: C#Cc1nn(-c2cc(Cl)c(Oc3cc(C(C)C)c(=O)[nH]n3)c(Cl)c2)c(=O)[nH]c1=O

IC50 [7]: 37.5 µM | IC50 [8]: 23.8 µM
Compound: CC(C)c1cc(Oc2c(Cl)cc(-n3nc(N)c(=O)[nH]c3=O)cc2Cl)n[nH]c1=O
IC50 [9]: > 10 µM | IC50 [10]: > 10 µM

fraction unbound at 4 h, 2 µM [1]: 0.004 | AUC(0-t) at 24 h [12]: 9410 ng·h/mL | fraction unbound at 4 h, 2 µM [2]: 0.003 | half-life at 3 h, 1 µM (in vitro [3]): 3.22 h | inhibition at 10 µM (CYP2C9): 49% | half-life at 3 h, 1 µM (in vitro [17]): 1.85 h | EC50 [18]: 0.303 µM | fraction unbound at 4 h, 2 µM [20]: 0.012 | Kp [21]: 6.3 | Kp [25]: 6.8 | concentration at 24 h [26]: 217 ng/mL | Cmax [27]: 2550 ng/mL | half-life at 3 h, 1 µM (in vitro [28]): > 6 h | half-life at 3 h, 1 µM (in vitro [4]): > 6 h | concentration at 24 h [31]: 73.6 ng/g | Cmax [33]: 969 ng/mL | concentration at 24 h [34]: 38.2 ng/mL | inhibition at 10 µM (CYP2C8): 91% | Papp ([5]; caco-2, 1 h): 0.03 10^-6 cm/s | concentration at 24 h [35]: 613 ng/g | fraction unbound at 4 h, 2 µM [38]: 0.005 | half-life at 3 h, 1 µM (in vitro [6]): > 6 h
Compound: CC(C)c1cc(Oc2c(Cl)cc(-n3nc(C#N)c(=O)[nH]c3=O)cc2Cl)n[nH]c1=O [RESMETIROM]
Activity (Rattus norvegicus [11]): -44.2% | Activity (Rattus norvegicus [13]): -34.5% | Activity (Rattus norvegicus [14]): -4.6% | Activity (Rattus norvegicus [15]): 1.7% | minimal effective dose (Rattus norvegicus [16]): 0.15 mg/kg | Activity (Rattus norvegicus [19]): -25.8% | Activity (Rattus norvegicus [22]): -1.9% | Activity (Rattus norvegicus [23]): Active | Activity (Rattus norvegicus [24]): -15.6% | Activity (Rattus norvegicus [29]): -34.8% | Activity (Rattus norvegicus [30]): -0.8% | Activity (Rattus norvegicus [32]): 9.5% | Activity (Rattus norvegicus [36]): -15.7% | Activity (Rattus norvegicus [37]): -18.4%
